Results taken from patent publication US12448389B2, “BRM targeting compounds and associated methods of use” (Prelude Therapeutics Incorporated, priority 2020, dated 2025).

Experiments:
[1] = target: T1, SMARCA4-HiBiT (Homo sapiens, UniProt P51532); test: SMARCA4 HiBiT degradation assay in HeLa cells; assay type: cell-based; conditions: 18 hours incubation; for DC50: read-out: HeLa-HiBit-SM4 DC50; for Dmax: HeLa, read-out: HeLa-HiBit-SM4 Dmax (%)
T1 construct: SMARCA4-HiBiT knock-in Hela monoclonal cell (CS3023226); host or cells: HeLa monoclonal knock-in line (CRISPR HiBiT knock-in at the endogenous locus, heterozygous)
T1 sequence (P51532 whole entry): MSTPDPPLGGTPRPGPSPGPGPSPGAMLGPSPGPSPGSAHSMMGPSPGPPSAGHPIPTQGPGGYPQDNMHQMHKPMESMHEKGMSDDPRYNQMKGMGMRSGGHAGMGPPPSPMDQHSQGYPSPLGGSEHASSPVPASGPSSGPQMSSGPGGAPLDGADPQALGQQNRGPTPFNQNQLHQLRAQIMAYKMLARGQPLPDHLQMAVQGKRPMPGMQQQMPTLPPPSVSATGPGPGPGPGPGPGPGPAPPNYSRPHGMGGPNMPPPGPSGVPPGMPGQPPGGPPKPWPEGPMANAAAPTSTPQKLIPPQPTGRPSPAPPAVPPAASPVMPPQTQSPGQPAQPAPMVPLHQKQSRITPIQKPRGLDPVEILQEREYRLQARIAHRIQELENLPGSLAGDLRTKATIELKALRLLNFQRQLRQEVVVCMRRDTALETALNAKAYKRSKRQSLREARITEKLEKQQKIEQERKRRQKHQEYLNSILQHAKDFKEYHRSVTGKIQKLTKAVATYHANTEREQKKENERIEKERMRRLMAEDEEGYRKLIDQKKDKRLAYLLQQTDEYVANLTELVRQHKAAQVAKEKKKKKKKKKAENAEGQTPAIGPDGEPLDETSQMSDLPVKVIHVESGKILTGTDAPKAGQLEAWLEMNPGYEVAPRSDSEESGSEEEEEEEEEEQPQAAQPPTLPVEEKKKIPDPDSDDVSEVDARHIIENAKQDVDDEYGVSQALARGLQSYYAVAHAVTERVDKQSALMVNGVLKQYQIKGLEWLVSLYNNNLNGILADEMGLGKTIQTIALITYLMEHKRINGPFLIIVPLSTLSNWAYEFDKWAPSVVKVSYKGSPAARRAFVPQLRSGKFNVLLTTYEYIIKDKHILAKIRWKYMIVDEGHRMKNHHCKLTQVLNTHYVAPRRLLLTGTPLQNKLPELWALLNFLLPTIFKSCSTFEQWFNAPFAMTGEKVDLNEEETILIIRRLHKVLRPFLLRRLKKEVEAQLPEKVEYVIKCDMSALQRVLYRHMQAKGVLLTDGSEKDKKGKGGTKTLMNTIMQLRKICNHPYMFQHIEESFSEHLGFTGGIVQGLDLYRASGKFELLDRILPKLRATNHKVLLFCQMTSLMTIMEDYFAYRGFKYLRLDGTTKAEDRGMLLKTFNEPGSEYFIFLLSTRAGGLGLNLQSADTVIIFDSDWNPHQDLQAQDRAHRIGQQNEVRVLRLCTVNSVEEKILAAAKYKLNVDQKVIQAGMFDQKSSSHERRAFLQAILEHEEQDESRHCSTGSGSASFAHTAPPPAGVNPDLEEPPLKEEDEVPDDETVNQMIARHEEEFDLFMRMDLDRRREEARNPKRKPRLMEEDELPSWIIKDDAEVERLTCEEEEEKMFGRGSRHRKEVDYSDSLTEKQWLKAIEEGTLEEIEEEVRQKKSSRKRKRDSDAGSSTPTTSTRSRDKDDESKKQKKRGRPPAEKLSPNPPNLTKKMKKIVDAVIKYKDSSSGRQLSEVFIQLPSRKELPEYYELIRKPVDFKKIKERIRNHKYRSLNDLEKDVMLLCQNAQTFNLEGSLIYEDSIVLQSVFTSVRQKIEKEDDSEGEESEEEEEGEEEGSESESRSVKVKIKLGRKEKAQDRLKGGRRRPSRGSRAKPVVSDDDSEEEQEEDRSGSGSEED
Procedure, shortened: (§1)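 HeLa monoclonal lines with heterozygous HiBiT knock-in were seeded at 2500 cells/well in EMEM with 10% FBS and treated with compound for 18 h at 37 °C. Remaining tagged protein was measured by Nano-Glo HiBiT lytic luminescence after 30–60 min at RT, and values came from curve fitting.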

[2] = target: T2, SMARCA2-HiBiT (Homo sapiens, UniProt P51531); test: SMARCA2 HiBiT degradation assay in HeLa cells; assay type: cell-based; conditions: 18 hours incubation; for DC50: read-out: HeLa_HiBit-SM2 DC50; for Dmax: HeLa, read-out: HeLa-HiBit-SM2 Dmax (%)
T2 construct: SMARCA2-HiBiT knock-in Hela monoclonal cell (CS302366); host or cells: HeLa monoclonal knock-in line (CRISPR HiBiT knock-in at the endogenous locus, heterozygous)
T2 sequence (P51531 whole entry): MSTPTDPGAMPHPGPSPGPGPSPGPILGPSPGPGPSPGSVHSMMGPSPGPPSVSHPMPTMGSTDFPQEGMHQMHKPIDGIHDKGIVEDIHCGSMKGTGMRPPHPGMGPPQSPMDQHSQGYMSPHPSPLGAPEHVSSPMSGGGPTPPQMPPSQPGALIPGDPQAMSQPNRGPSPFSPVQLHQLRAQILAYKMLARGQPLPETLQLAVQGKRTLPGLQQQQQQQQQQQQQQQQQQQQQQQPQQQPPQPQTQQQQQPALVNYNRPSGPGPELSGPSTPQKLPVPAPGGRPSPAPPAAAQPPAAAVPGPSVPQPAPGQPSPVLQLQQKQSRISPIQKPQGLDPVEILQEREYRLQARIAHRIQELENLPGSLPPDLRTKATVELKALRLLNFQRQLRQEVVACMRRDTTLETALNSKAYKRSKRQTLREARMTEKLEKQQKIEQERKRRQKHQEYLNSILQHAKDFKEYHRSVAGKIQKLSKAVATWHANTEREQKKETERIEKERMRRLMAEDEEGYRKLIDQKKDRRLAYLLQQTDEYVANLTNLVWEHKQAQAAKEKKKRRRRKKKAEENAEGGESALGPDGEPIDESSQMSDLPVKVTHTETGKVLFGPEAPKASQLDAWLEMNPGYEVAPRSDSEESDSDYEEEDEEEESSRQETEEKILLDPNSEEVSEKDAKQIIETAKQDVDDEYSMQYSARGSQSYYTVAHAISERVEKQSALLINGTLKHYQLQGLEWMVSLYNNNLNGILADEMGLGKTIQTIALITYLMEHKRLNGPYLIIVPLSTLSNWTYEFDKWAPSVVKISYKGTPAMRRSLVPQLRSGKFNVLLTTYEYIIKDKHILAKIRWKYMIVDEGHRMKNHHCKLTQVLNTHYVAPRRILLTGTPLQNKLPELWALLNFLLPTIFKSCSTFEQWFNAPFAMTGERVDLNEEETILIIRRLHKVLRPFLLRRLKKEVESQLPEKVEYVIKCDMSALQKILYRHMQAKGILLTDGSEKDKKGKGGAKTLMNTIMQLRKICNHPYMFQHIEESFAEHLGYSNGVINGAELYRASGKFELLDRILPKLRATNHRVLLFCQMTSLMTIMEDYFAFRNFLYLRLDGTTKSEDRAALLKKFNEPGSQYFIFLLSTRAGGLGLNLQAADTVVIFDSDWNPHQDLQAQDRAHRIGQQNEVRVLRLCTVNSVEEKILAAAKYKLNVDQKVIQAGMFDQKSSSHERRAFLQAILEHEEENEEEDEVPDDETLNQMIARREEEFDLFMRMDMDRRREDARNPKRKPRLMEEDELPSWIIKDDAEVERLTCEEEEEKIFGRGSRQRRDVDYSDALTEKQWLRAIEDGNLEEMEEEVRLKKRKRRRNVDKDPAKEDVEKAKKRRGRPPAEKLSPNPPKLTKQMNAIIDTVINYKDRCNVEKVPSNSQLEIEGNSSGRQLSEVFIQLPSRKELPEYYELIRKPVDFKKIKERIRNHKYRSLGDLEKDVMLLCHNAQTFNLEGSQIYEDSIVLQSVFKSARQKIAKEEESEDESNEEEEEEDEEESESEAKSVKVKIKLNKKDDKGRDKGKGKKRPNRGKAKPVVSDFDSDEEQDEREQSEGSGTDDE
Procedure, shortened: as §1

O=C1CCC(N2Cc3cc(N4CCC(CN5CCC(CN6CCN7c8cc(-c9ccccc9O)nnc8NC[C@H]7C6)CC5)CC4)c(F)cc3C2=O)C(=O)N1 (stereo partly drawn) [Example 234, 3-(6-fluoro-5-(4-((4-(((S)-2-(2-hydroxyphenyl)-5,6,6a,7,9,1O-hexahydro-8H-pyrazino[1′,2′:4,5]pyrazino[2,3-c]pyridazin-8-yl)methyl)piperidin-1-yl)methyl)piperidin-1-yl)-1-oxoisoindolin-2-yl)piperidine-2,6-dione]
DC50 [1]: < 10 nM | Dmax [1]: > 85% | DC50 [2]: < 10 nM | Dmax [2]: > 85%

O=C1CCC(n2ccc3cc(N4CCC(CN5CCC(N6CCN7c8cc(-c9ccccc9O)nnc8NC[C@H]7C6)CC5)CC4)ccc3c2=O)C(=O)N1 (stereo partly drawn) [Example 26, 3-(6-(4-((4-((S)-2-(2-hydroxyphenyl)-5,6,6a,7,9,10-hexahydro-8H-pyrazino [1′,2′:4,5]pyrazino[2,3-c]pyridazin-8-yl)piperidin-1-yl)methyl)piperidin-1-yl)-1-oxoisoquinolin-2(1H)-yl)piperidine-2,6-dione]
DC50 [1]: < 10 nM | Dmax [1]: > 85% | DC50 [2]: < 10 nM | Dmax [2]: > 85%

O=C1CCC(N2Cc3ccc(N4CCC(CN5Cc6cnc(N7CCN8c9cc(-c%10ccccc%10O)nnc9NC[C@H]8C7)nc6C5)CC4)cc3C2=O)C(=O)N1 (stereo partly drawn) [Example 61, 3-(6-(4-((2-((S)-2-(2-hydroxyphenyl)-5,6,6a,7,9,10-hexahydro-8H-pyrazino[1′,2′:4,5]pyrazino[2,3-c]pyridazin-8-yl)-5,7-dihydro-6H-pyrrolo[3,4-d]pyrimidin-6-yl)methyl)piperidin-1-yl)-1-oxoisoindolin-2-yl)piperidine-2,6-dione]
DC50 [1]: < 10 nM | Dmax [1]: ≤ 50% | DC50 [2]: < 10 nM | Dmax [2]: ≤ 50%

CC1CC(N2CCN3c4cc(-c5ccccc5O)nnc4NC[C@H]3C2)CCN1CCCC1CCN(c2cccc3c2C(=O)N(C2CCC(=O)NC2=O)C3=O)CC1 (stereo partly drawn) [Example 126, 2-(2,6-dioxopiperidin-3-yl)-4-(4-(3-(4-((S)-2-(2-hydroxyphenyl)-5,6,6a,7,9,10-hexahydro-8H-pyrazino[1′,2′:4,5]pyrazino[2,3-c]pyridazin-8-yl)-2-methylpiperidin-1-yl)propyl)piperidin-1-yl)isoindoline-1,3-dione]
DC50 [1]: < 10 nM | Dmax [1]: 75 to 85% | DC50 [2]: < 10 nM | Dmax [2]: > 85%

CC1(CN2CCN3c4cc(-c5ccccc5O)nnc4NC[C@H]3C2)CCN(CC2CCN(c3ccc4c(c3)C(=O)N(C3CCC(=O)NC3=O)C4=O)CC2)CC1 (stereo partly drawn) [Example 37, 2-(2,6-dioxopiperidin-3-yl)-5-(4-((4-(((S)-2-(2-hydroxyphenyl)-5,6,6a,7,9,10-hexahydro-8H-pyrazino[1′,2′:4,5]pyrazino[2,3-c]pyridazin-8-yl)methyl)-4-methylpiperidin-1-yl)methyl)piperidin-1-yl)isoindoline-1,3-dione]
DC50 [1]: < 10 nM | Dmax [1]: > 85% | DC50 [2]: < 10 nM | Dmax [2]: > 85%

O=C1CCC(N2C(=O)c3ccc(N4CCC(CN5CCc6cnc(N7CCN8c9cc(-c%10ccccc%10O)nnc9NC[C@H]8C7)nc6C5)CC4)cc3C2=O)C(=O)N1 (stereo partly drawn) [Example 60, 2-(2,6-dioxopiperidin-3-yl)-5-(4-((2-((S)-2-(2-hydroxyphenyl)-5,6,6a,7,9,10-hexahydro-8H-pyrazino[1′,2′:4,5]pyrazino[2,3-c]pyridazin-8-yl)-5,8-dihydropyrido[3,4-d]pyrimidin-7(6H)-yl)methyl)piperidin-1-yl) isoindoline-1,3-dione]
DC50 [1]: < 10 nM | Dmax [1]: ≤ 50% | DC50 [2]: < 10 nM | Dmax [2]: ≤ 50%

O=C1CCC(N2Cc3ccc(N4CCOC(CN5CCC(C(=O)N6CCN7c8cc(-c9ccccc9O)nnc8NC[C@H]7C6)CC5)C4)cc3C2=O)C(=O)N1 (stereo partly drawn) [Example 113, 3-(6-(2-((4-((S)-2-(2-hydroxyphenyl)-6,6a,7,8,9,10-hexahydro-5H-pyrazino[1′,2′:4,5]pyrazino[2,3-c]pyridazine-8-carbonyl)piperidin-1-yl)methyl)morpholino)-1-oxoisoindolin-2-yl)piperidine-2,6-dione]
DC50 [1]: 10 to 100 nM | Dmax [1]: 50 to 75% | DC50 [2]: < 10 nM | Dmax [2]: ≤ 50%
